Here are results for 21 compounds from patent US20240083897A1, “GCN2 MODULATING COMPOUNDS AND USES THEREOF” (HiberCell, Inc., priority 2021, published 2024).

This assay addresses GCN2 (Homo sapiens (Human), UniProt Q9P2K8). In words: TR-FRET biochemical assay for inhibition of GCN2. (In TR-FRET formats the signal depends on donor and acceptor labels being close together.)
Setting [1] is: GCN2 2 nM, 100 nM GFP-eIF2a, 150 μM ATP, TR-FRET.

Each structure is given as a SMILES string. Where two headings read alike, the source gives them in different places. Where only a bound is given, the exact number is not on record here.

As a reminder, the IC50 is the concentration needed to halve the response being measured.

Chain of GCN2 (Q9P2K8 whole entry): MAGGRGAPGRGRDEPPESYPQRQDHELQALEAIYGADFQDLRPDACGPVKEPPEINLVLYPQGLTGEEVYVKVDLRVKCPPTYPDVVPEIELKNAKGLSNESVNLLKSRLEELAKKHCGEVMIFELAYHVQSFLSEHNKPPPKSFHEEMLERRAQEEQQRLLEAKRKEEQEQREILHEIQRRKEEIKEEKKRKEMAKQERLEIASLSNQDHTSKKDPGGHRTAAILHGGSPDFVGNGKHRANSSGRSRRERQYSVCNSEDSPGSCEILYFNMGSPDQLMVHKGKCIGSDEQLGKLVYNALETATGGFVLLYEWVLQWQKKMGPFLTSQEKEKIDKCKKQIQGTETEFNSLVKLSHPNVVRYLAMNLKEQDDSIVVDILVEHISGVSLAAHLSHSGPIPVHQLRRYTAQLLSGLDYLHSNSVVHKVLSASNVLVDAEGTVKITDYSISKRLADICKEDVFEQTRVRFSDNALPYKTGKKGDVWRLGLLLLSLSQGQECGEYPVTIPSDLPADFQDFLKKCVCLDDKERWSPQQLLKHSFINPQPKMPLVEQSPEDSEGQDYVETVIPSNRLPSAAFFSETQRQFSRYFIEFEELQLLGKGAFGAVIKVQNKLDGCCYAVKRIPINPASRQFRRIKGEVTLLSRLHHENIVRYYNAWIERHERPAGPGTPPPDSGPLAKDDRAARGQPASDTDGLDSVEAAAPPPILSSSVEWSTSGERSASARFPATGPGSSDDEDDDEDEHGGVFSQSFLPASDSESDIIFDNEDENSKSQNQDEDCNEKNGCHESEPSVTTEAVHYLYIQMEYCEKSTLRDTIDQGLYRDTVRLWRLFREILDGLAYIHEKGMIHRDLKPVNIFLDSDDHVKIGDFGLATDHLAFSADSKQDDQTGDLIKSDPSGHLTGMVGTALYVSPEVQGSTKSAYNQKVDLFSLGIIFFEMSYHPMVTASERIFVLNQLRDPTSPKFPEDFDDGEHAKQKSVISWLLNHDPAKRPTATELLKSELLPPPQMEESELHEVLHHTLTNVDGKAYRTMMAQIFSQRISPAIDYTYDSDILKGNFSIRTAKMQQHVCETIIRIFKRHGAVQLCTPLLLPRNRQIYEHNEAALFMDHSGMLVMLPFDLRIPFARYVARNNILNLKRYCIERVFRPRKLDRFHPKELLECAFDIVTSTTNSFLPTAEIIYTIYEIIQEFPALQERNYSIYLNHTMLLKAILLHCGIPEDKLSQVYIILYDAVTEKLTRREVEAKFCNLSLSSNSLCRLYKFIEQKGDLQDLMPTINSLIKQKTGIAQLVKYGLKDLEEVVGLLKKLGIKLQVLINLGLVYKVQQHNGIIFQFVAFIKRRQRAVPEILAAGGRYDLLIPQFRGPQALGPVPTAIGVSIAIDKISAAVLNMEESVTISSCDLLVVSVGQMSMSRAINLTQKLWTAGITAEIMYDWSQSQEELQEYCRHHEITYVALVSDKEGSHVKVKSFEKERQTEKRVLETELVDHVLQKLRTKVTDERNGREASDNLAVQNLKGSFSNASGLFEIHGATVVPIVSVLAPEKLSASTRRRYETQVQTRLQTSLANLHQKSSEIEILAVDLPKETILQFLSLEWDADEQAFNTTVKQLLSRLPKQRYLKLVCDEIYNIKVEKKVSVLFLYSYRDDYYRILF

Under setting [1], `Cc1ncc(F)cc1S(=O)(=O)Nc1ccc(F)c(-c2cn3cnc(-c4nc5ccccc5[nH]4)c3cn2)c1F` [Compound 114, N-[3-[1-(1H-1,3-benzodiazol-2-yl)imidazo[1,5-a]pyrazin-6-yl]-2,4-difluorophenyl]-5-fluoro-2-methylpyridine-3-sulfonamide] gave an IC50 of less than 50 nM.

Regarding `Cc1ncc(Cl)cc1S(=O)(=O)Nc1ccc(F)c(-c2cn3cnc(-c4nc5ccccc5[nH]4)c3cn2)c1F` [Compound 113, N-[3-[1-(1H-1,3-benzodiazol-2-yl)imidazo[1,5-a]pyrazin-6-yl]-2,4-difluorophenyl]-5-chloro-2-methylpyridine-3-sulfonamide], under setting [1], the IC50 is less than 50 nM.

Turning to `COc1ncc(Cl)cc1S(=O)(=O)Nc1ccc(F)c(-c2ccc3c(-c4ccn[nH]4)ncn3c2F)c1F` [Compound 105, 5-chloro-N-[2,4-difluoro-3-[5-fluoro-1-(2H-pyrazol-3-yl)imidazo[1,5-a]pyridin-6-yl]phenyl]-2-methoxypyridine-3-sulfonamide], under setting [1], the IC50 was less than 50 nM.

`Cc1ncc(Cl)cc1S(=O)(=O)Nc1ccc(F)c(-c2ccc3c(-n4cnnn4)ncn3c2)c1F` [Compound 77, 5-chloro-N-[2,4-difluoro-3-[1-(1,2,3,4-tetrazol-1-yl)imidazo[1,5-a]pyridin-6-yl]phenyl]-2-methylpyridine-3-sulfonamide]: under setting [1], the IC50 is less than 50 nM.

On to `COc1ncc(Cl)cc1S(=O)(=O)Nc1ccc(F)c(-c2cn3cnc(C(=O)Nc4ccc(CN(C)C)cc4)c3cn2)c1F` [Compound 181, 6-[3-(5-chloro-2-methoxypyridine-3-sulfonamido)-2,6-difluorophenyl]-N-[4-[(dimethylamino)methyl]phenyl]imidazo[1,5-a]pyrazine-1-carboxamide], for which the IC50 under setting [1] was less than 50 nM.

Take `Cc1ncc(Cl)cc1S(=O)(=O)Nc1ccc(F)c(-c2ccc3c(-c4nc5c([nH]4)CCCC5)ncn3c2)c1F` [Compound 150, 5-chloro-N-(2,4-difluoro-3-(1-(4,5,6,7-tetrahydro-1H-benzo[d]imidazol-2-yl)imidazo[1,5-a]pyridin-6-yl)phenyl)-2-methylpyridine-3-sulfonamide]: under setting [1], the IC50 was less than 50 nM.

Regarding `Cc1ncc(Cl)cc1S(=O)(=O)Nc1ccc(F)c(-c2ccc3c(-c4nc(C)c(C)[nH]4)ncn3c2)c1F` [Compound 146, 5-chloro-N-(3-(1-(4,5-dimethyl-1H-imidazol-2-yl)imidazo[1,5-a]pyridin-6-yl)-2,4-difluorophenyl)-2-methylpyridine-3-sulfonamide], the IC50 under setting [1] was less than 50 nM.

For `CNC(=O)c1ncn2cc(-c3c(F)ccc(NS(=O)(=O)c4cc(Cl)cnc4OC4CC4)c3F)ncc12` [Compound 169, 6-[3-(5-chloro-2-cyclopropoxypyridine-3-sulfonamido)-2,6-difluorophenyl]-N-methylimidazo[1,5-a]pyrazine-1-carboxamide], the IC50 was in the range of 50 to 500 nM.

Compound `COc1ncc(F)cc1S(=O)(=O)Nc1ccc(F)c([C@H]2CCc3c(-c4ncc[nH]4)ncn3C2)c1F` [Compound 81-1, N-[2,4-difluoro-3-[(6R)-1-(1H-imidazol-2-yl)-5H,6H,7H,8H-imidazo[1,5-a]pyridin-6-yl]phenyl]-5-fluoro-2-methoxypyridine-3-sulfonamide] registered a half-maximal inhibitory concentration (IC50) under setting [1] of less than 50 nM.

Regarding `CNC(=O)c1ncn2c1CC[C@H](c1c(F)ccc(NS(=O)(=O)c3cc(Cl)cnc3OC)c1F)C2` [Compound 27-1, (6R)-6-[3-(5-chloro-2-methoxypyridine-3-sulfonamido)-2,6-difluorophenyl]-N-methyl-5H,6H,7H,8H-imidazo[1,5-a]pyridine-1-carboxamide], the IC50 fell in the range of 50 to 500 nM.

Consider `Cc1ncc(F)cc1S(=O)(=O)Nc1ccc(F)c(-c2ccc3c(-c4ccno4)ncn3c2)c1F` [Compound 125, N-[2,4-difluoro-3-[1-(1,2-oxazol-5-yl)imidazo[1,5-a]pyridin-6-yl]phenyl]-5-fluoro-2-methylpyridine-3-sulfonamide], for which the IC50 under setting [1] is less than 50 nM.

With `Cc1ncc(F)cc1S(=O)(=O)Nc1ccc(F)c(-c2ccc3c(-n4cnnn4)ncn3c2)c1F` [Compound 76, N-[2,4-difluoro-3-[1-(1,2,3,4-tetrazol-1-yl)imidazo[1,5-a]pyridin-6-yl]phenyl]-5-fluoro-2-methylpyridine-3-sulfonamide], the IC50 under setting [1] was less than 50 nM.

For `CNC(=O)c1ncn2c1CCC(c1c(Cl)ccc(NS(=O)(=O)c3cc(F)cnc3OC)c1F)C2` (stereo in doubt) [Compound 155-1, (6R)-6-[6-chloro-2-fluoro-3-(5-fluoro-2-methoxypyridine-3-sulfonamido)phenyl]-N-methyl-5H,6H,7H,8H-imidazo[1,5-a]pyridine-1-carboxamide], under setting [1], the IC50 is less than 50 nM.

For `COc1ncc(Cl)cc1S(=O)(=O)Nc1ccc(F)c([C@H]2CCc3c(-c4ncc[nH]4)ncn3C2)c1F` [Compound 79-1, 5-chloro-N-[2,4-difluoro-3-[(6R)-1-(1H-imidazol-2-yl)-5H,6H,7H,8H-imidazo[1,5-a]pyridin-6-yl]phenyl]-2-methoxypyridine-3-sulfonamide], the IC50 under setting [1] was less than 50 nM.

On to `COc1ncc(F)cc1S(=O)(=O)Nc1ccc(F)c(-c2ccc3c(-c4nc5c([nH]4)CCCC5)ncn3c2)c1F` [Compound 148, N-(2,4-difluoro-3-(1-(4,5,6,7-tetrahydro-1H-benzo[d]imidazol-2-yl)imidazo[1,5-a]pyridin-6-yl)phenyl)-5-fluoro-2-methoxypyridine-3-sulfonamide], for which the IC50 under setting [1] is less than 50 nM.

In the case of `CNC(=O)c1ncn2cc(-c3c(F)ccc(NS(=O)(=O)c4cc(C(F)(F)F)cnc4OC)c3F)ccc12` [Compound 13, 6-[2,6-difluoro-3-[2-methoxy-5-(trifluoromethyl)pyridine-3-sulfonamido]phenyl]-N-methylimidazo[1,5-a]pyridine-1-carboxamide], the IC50 under setting [1] was less than 50 nM.

As for `COc1ncc(Cl)cc1S(=O)(=O)Nc1ccc(F)c(-c2ccc3c(-c4ncc[nH]4)ncn3c2F)c1F` [Compound 104, 5-chloro-N-[2,4-difluoro-3-[5-fluoro-1-(1H-imidazol-2-yl)imidazo[1,5-a]pyridin-6-yl]phenyl]-2-methoxypyridine-3-sulfonamide], the IC50 under setting [1] is less than 50 nM.

`Cc1ncc(Cl)cc1S(=O)(=O)Nc1ccc(F)c(-c2cn3cnc(-c4ncc[nH]4)c3cn2)c1F` [Compound 83, 5-chloro-N-[2,4-difluoro-3-[1-(1H-imidazol-2-yl)imidazo[1,5-a]pyrazin-6-yl]phenyl]-2-methylpyridine-3-sulfonamide] yielded an IC50 under setting [1] of less than 50 nM.

The compound `COc1ncc(Cl)cc1S(=O)(=O)Nc1ccc(F)c(-c2ccc3c(-n4nccn4)ncn3c2)c1F` [Compound 55-2, 5-chloro-N-[2,4-difluoro-3-[1-(1,2,3-triazol-2-yl)imidazo[1,5-a]pyridin-6-yl]phenyl]-2-methoxypyridine-3-sulfonamide] yielded an IC50 of 500 to 1000 nM.

Consider `Cc1ncc(Cl)cc1S(=O)(=O)Nc1ccc(F)c(-c2ccc3c(-c4nnc[nH]4)ncn3c2)c1F` [Compound 65, 5-chloro-N-[2,4-difluoro-3-[1-(4H-1,2,4-triazol-3-yl)imidazo[1,5-a]pyridin-6-yl]phenyl]-2-methylpyridine-3-sulfonamide], for which the IC50 under setting [1] is less than 50 nM.

Turning to `COc1ncc(Cl)cc1S(=O)(=O)Nc1ncc(F)c(-c2ccc3c(-c4ncc[nH]4)ncn3c2)c1F` [Compound 26, 5-chloro-N-[3,5-difluoro-4-[1-(1H-imidazol-2-yl)imidazo[1,5-a]pyridin-6-yl]pyridin-2-yl]-2-methoxypyridine-3-sulfonamide], the IC50 under setting [1] is less than 50 nM.
